Our source for the IC50 values is patent publication US20250034161A1, “SPIROCYCLIC COMPOUND AS KRAS-G12C INHIBITOR” (Shanghai Euregen Biopharma Co., Ltd., priority 2020, published 2025).

Structures are written as SMILES.

The term IC50 denotes the concentration needed to halve the response being measured. A high value points to weaker potency.

Assay [1] concerns the target T1, CYP1A2 (Homo sapiens, UniProt P05177).
T1 sequence (P05177 1-516): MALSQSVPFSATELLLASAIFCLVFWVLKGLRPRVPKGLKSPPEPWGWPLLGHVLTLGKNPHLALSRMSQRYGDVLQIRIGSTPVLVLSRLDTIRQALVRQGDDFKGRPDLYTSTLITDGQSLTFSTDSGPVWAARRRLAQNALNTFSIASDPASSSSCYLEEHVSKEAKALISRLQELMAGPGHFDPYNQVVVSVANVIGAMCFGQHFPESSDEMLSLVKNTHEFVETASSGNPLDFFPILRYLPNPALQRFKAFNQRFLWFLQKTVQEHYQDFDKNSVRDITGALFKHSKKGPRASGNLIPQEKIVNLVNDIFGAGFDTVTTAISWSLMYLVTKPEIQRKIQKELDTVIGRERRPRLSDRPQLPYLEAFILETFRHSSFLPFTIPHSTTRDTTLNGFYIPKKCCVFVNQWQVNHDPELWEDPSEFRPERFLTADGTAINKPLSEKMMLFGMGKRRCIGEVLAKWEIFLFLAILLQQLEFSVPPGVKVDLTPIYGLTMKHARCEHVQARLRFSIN
Kind of assay: CYP inhibition test, human liver microsomes, CYP1A2. Here is the method:
(§1) • 1. Test purpose: to evaluate the inhibitory ability of some of the example compounds of the present invention against CYP1A2, 2B6, 2C8, 2C9, 2C19, 2D6 and 3A4 via human liver microsomes. • 2. […] Test method:
• 1. K/Mg buffer: the components were 0.1 mol/L potassium phosphate and 5 mmol/L magnesium chloride with pH 7.4±0.1, preheated. • 2. Solution of the test compound: the test compound was dissolved in dimethyl sulfoxide to prepare a stock solution of 10 mmol/L. 8 μL of 10 mmol/L stock solution was transferred to a 96-well plate containing 12 μL of acetonitrile as the highest concentration point, at 3-fold dilution, for 8 concentrations. • 3. NADPH solution: 66.7 mg of NADPH was dissolved in 10 mL of 0.1 mol/L K/Mg buffer to obtain 8 mmol/L NADPH solution with pH 7.4. • 4. Human liver microsomal stock solution: human liver microsomes were dissolved in 0.1 mol/L K/Mg buffer to obtain 20 mg/mL stock solution. • 5. Human liver microsomal working solution: 10 μL of 20 mg/mL human liver microsomal stock solution was taken and added into 990 μL of 0.1 mol/L K/Mg buffer to prepare 0.2 mg/mL human liver microsomal solution. • 6. […]

For assay [2], the target named is CYP 2D6 (Homo sapiens, UniProt P10635). Kind of assay: CYP inhibition test, human liver microsomes, CYP2D6. Here is the method: as §1
(§2) • 1. K/Mg buffer: the components were 0.1 mol/L potassium phosphate and 5 mmol/L magnesium chloride with pH 7.4±0.1, preheated. • 2. Solution of the test compound: the test compound was dissolved in dimethyl sulfoxide to prepare a stock solution of 10 mmol/L. 8 μL of 10 mmol/L stock solution was transferred to a 96-well plate containing 12 μL of acetonitrile as the highest concentration point, at 3-fold dilution, for 8 concentrations. • 3. […] Human liver microsomal stock solution: human liver microsomes were dissolved in 0.1 mol/L K/Mg buffer to obtain 20 mg/mL stock solution. • 5. Human liver microsomal working solution: 10 μL of 20 mg/mL human liver microsomal stock solution was taken and added into 990 μL of 0.1 mol/L K/Mg buffer to prepare 0.2 mg/mL human liver microsomal solution. • 6.
600 μL of 0.2 mg/mL human liver microsomal solution and 3 μL of stepwise diluted test compound solution were added to the 96-well plate. 30 μL of the above solution was added on the 96-well plate followed by the addition of 15 μL of the corresponding substrate solution. […]
In general terms: Liver microsomes are a subcellular fraction often used to study metabolism.

For assay [3], the target named is CYP 3A4 (Homo sapiens, UniProt P08684). Description: CYP inhibition test, human liver microsomes, CYP3A4. Conditions: IC50(μM). Here is the method: as §1, §2
600 μL of 0.2 mg/mL human liver microsomal solution and 3 μL of stepwise diluted test compound solution were added to the 96-well plate. 30 μL of the above solution was added on the 96-well plate followed by the addition of 15 μL of the corresponding substrate solution. The 96-well plate and the NADPH solution were pre-incubated at 37° C. for 5 minutes, and 15 μL of NADPH solution was added to the 96-well plate to start the reaction. The assay plate was incubated at 37° C. for 5 minutes for 3A4, 10 minutes for 1A2, 2B6 and 2C9, 20 minutes for 2C8 and 2D6, and 45 minutes for 2C19. Then the reaction was terminated by 180 μL of acetonitrile containing internal standard substance. After quenching, the plate was shook for 10 minutes (600 rpm/min) and then centrifuged at 6000 rpm for 15 minutes. 80 μL of supernatant was taken from each well and transferred to a 96-well sample plate containing 120 μL of ultrapure water for LC-MS/MS analysis.

Setting [4] is: CYP 3 A4-M, substrate midazolam.
The mark [5] stands for this setting: CYP 3 A4-T, substrate testosterone.

CYP 3A4, sequence (P08684 whole entry): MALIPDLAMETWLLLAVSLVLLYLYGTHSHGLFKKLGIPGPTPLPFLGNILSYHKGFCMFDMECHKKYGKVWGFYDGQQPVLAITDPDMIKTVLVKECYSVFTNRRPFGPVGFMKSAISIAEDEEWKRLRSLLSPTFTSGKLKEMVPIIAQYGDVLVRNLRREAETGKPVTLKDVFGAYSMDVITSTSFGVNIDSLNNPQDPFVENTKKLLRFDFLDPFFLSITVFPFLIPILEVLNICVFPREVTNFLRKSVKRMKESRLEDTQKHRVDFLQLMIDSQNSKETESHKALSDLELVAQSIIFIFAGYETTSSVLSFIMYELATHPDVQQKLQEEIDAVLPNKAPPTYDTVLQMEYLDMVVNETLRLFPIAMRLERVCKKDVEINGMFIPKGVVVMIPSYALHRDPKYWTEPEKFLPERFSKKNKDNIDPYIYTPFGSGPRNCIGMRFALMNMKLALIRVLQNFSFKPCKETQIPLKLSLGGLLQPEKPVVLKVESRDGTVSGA
CYP 2D6, sequence (P10635 whole entry): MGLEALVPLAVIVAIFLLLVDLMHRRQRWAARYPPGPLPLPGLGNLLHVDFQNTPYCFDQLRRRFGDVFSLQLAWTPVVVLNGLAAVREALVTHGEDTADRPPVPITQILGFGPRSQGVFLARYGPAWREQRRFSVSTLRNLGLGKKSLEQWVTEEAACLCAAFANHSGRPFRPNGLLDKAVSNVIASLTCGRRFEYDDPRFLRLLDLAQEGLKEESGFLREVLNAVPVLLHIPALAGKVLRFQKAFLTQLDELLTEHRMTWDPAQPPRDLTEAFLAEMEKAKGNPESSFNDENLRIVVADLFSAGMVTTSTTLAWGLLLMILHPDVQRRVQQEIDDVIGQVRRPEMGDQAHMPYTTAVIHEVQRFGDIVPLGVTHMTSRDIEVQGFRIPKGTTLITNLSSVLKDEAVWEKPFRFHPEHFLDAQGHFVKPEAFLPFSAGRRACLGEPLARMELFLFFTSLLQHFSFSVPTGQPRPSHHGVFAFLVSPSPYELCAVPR

Turning to `C=CC(=O)N1CCN(c2nc(=O)n(-c3c(C)ccnc3C(C)C)c3nc(-c4c(O)cccc4F)c(F)cc23)[C@@H](C)C1` [AMG510], the IC50 in assay [1] is above 10 µM; in assay [2] it was above 10 µM; in assay [3] (setting [4]), 5.07 µM; in assay [3] (setting [5]) it was above 10 µM.

In the case of `C=C(F)C(=O)N1CCN(c2nc(OC[C@@H]3CCCN3C)nc3c2CCN(c2cccc4cccc(Cl)c24)C3)C[C@@H]1CC#N` [MRTX849], the IC50 in assay [1] was above 10 µM; in assay [2] it was 9.72 µM; in assay [3] (setting [4]), 6.83 µM; in assay [3] (setting [5]) it was above 10 µM.
